# Data published in patent publication US12516046B2, “2-oxo-oxazolidine-5-carboxamides as NAV1.8 inhibitors” (Merck Sharp & Dohme LLC, priority 2020, dated 2026).
# Target: human Nav1.8 (Homo sapiens (Human), UniProt Q9Y5Y9)
# Assay: Nav1.8 Qube® Assay (automated 384-well patch-clamp)
# Type: cell-based
# Conditions: human Nav1.8 channels stably expressed in HEK 293 cells
# Source text: Qube® Assay Experimental Procedure
# Chain of human Nav1.8 (Q9Y5Y9 whole entry): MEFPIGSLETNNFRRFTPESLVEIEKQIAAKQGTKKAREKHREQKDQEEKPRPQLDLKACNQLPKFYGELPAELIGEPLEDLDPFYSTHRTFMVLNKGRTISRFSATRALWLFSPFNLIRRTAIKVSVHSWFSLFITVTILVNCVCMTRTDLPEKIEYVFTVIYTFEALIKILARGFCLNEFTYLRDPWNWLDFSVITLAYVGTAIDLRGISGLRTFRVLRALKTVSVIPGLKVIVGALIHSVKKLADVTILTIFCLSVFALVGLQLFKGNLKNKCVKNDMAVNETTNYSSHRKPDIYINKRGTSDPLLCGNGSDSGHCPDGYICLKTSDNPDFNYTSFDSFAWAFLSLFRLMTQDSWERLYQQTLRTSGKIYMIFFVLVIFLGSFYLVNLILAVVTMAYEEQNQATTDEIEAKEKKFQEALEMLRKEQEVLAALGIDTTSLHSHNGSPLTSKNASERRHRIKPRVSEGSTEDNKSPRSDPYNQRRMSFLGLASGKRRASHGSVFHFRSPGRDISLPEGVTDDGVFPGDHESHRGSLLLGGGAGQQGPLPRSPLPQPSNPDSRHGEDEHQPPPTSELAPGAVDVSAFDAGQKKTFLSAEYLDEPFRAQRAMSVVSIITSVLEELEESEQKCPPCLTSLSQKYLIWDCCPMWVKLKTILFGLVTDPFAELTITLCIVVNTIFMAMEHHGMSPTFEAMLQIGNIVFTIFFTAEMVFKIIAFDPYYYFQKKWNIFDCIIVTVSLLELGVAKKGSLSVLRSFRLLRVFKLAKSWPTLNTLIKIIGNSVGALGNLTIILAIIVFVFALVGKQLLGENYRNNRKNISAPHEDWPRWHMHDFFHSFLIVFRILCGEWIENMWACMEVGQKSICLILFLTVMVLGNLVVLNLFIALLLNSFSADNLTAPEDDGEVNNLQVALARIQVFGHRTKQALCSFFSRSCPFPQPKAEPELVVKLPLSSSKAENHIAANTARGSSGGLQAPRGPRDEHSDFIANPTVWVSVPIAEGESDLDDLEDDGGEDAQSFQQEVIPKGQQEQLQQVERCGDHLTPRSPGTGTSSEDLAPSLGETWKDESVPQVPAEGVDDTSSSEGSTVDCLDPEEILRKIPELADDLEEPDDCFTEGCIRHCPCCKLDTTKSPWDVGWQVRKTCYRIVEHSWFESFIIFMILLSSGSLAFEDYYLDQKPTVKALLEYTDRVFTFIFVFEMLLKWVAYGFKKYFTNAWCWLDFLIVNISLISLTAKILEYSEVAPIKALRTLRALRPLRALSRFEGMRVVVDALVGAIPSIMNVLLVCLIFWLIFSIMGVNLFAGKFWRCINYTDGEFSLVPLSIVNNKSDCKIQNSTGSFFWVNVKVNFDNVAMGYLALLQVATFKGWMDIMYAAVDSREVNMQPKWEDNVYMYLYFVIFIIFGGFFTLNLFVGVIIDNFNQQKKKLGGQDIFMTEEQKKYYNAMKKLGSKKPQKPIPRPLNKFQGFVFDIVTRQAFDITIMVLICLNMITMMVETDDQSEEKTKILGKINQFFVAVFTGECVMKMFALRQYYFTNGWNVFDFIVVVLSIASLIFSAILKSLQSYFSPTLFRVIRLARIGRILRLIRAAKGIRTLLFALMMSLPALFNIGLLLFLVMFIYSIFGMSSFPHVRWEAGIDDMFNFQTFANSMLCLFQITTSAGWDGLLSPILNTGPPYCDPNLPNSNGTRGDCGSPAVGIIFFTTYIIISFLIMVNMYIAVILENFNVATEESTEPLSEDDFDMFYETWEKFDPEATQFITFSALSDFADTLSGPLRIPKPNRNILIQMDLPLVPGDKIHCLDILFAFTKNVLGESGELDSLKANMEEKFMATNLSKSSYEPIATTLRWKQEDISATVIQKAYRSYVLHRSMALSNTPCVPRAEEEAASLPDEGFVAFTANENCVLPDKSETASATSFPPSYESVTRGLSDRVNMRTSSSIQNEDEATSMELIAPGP
row,IC50 [nM],SMILES
1,693,"O=C1NC[C@@H](C(=O)NC(c2ccc(F)c(Cl)c2)c2cnn(CC(F)(F)F)c2)O1 (single isomer, unassigned) [Example 59B, (S)-N-((R or S)-(3-chloro-4-fluorophenyl)(1-(2,2,2-trifluoroethyl)-1H-pyrazol-4-yl)methyl)-2-oxooxazolidine-5-carboxamide]"
2,4.7,"COc1cc(Cl)ccc1C(NC(=O)[C@@H]1CNC(=O)O1)c1ccc(F)cc1 (single isomer, unassigned) [Example 55B, (S)—N—((R or S)-(4-chloro-2-methoxyphenyl)(4-fluorophenyl)methyl)-2-oxooxazolidine-5-carboxamide]"
3,69,"O=C1NC[C@@H](C(=O)NC(c2ccc(Cl)cc2)c2ccc(OC(F)F)nc2)O1 (stereo partly drawn) [Example 36, (5S)-N-((4-chlorophenyl)(6-(difluoromethoxy)pyridin-3-yl)methyl)-2-oxooxazolidine-5-carboxamide]"
4,7.2,"N#Cc1ccc(C(NC(=O)[C@@H]2CNC(=O)O2)c2cnc(C(F)(F)F)c(Cl)c2)cc1Cl (single isomer, unassigned) [Example 54B, (S)-N-((R or S)-(3-chloro-4-cyano-phenyl)(5-chloro-6-(trifluoromethyl)pyridin-3-yl)methyl)-2-oxooxazolidine-5-carboxamide]"
5,2.4,"O=C1NC[C@@H](C(=O)NC(c2ccc(Cl)cc2)c2cccc3ccccc23)O1 (stereo partly drawn) [Example 30, (5S)-N-((4-chlorophenyl) (naphthalen-1-yl)methyl)-2-oxooxazolidine-5-carboxamide]"
6,1760,"O=C1NC[C@@H](C(=O)NC(c2ccc(F)c(Cl)c2)C2CCN(CC(F)(F)F)C2)O1 (single isomer, unassigned) [Example 43A, (S)-N-((R or S)-(3-chloro-4-fluorophenyl)((R or S)-1-(2,2,2-trifluoroethyl)pyrrolidin-3-yl)methyl)-2-oxooxazolidine-5-carboxamide]"
7,399,"O=C1NC[C@@H](C(=O)NC(c2ccc(Cl)cc2)c2ccnc(C(F)(F)F)n2)O1 (single isomer, unassigned) [Example 11B, (S)-N-((R or S)-(4-chlorophenyl)(2-(trifluoromethyl)pyrimidin-4-yl)methyl)-2-oxooxazolidine-5-carboxamide]"
8,3450,"O=C1NC[C@@H](C(=O)NC(c2ccc(Cl)cc2)C2CCC(F)(F)C2)O1 (single isomer, unassigned) [Example 57A, (S)-N-((R or S)-(4-chlorophenyl)((R or S)-3,3-difluorocyclopentyl)methyl)-2-oxooxazolidine-5-carboxamide]"
9,289,"O=C1NC[C@@H](C(=O)NC(c2ccc(Cl)cc2)C23C4C5C6C4C2C6C53)O1 (single isomer, unassigned) [Example 56B, (S)—N—((R or S)-(4-chlorophenyl)(cuban-1-yl)methyl)-2-oxooxazolidine-5-carboxamide]"
10,4.6,"O=C1NC[C@@H](C(=O)NC(c2ccc(F)c(Cl)c2)c2csc(C(F)(F)F)n2)O1 (single isomer, unassigned) [Example 44A, (S)—N—((R or S)-(3-chloro-4-fluorophenyl)(2-(trifluoromethyl)thiazol-4-yl)methyl)-2-oxooxazolidine-5-carboxamide]"
11,0.6,"Cc1cc(C(NC(=O)[C@@H]2CNC(=O)O2)c2ccc(Cl)cc2)ccc1Cl (single isomer, unassigned) [Example 46A, (S)-N-((R or S)-(4-chloro-3-methylphenyl)(4-chlorophenyl)methyl)-2-oxooxazolidine-5-carboxamide]"
12,46,"O=C1NC[C@@H](C(=O)NC(c2ccc(F)c(Cl)c2)c2ccc(F)c(OCC(F)(F)F)n2)O1 (single isomer, unassigned) [Example 1A, (S)—N—((R or S)-(3-chloro-4-fluorophenyl)(5-fluoro-6-(2,2,2-trifluoroethoxy)pyridin-2-yl)methyl)-2-oxooxazolidine-5-carboxamide]"
13,8.4,"COc1ccc(Cl)cc1C(NC(=O)[C@@H]1CNC(=O)O1)c1cccc(Cl)c1 (single isomer, unassigned) [Example 28B, (S)-N-((R or S)-(5-chloro-2-methoxyphenyl)(3-chlorophenyl)methyl)-2-oxooxazolidine-5-carboxamide]"
14,0.7,"O=C1NC[C@@H](C(=O)NC(c2ccc(F)c(Cl)c2)c2ccc(F)c(Cl)c2)O1 [Example 10, (S)-N-(bis(3-chloro-4-fluorophenyl)methyl)-2-oxooxazolidine-5-carboxamide]"
15,12,"O=C1NC[C@@H](C(=O)NC(c2ccc(Cl)c(C(F)(F)F)n2)C2CCC(F)(F)CC2)O1 (single isomer, unassigned) [Example 63A, (S)-N-((R or S)-(5-chloro-6-(trifluoromethyl)pyridin-2-yl)(4,4-difluoro-cyclohexyl)methyl)-2-oxooxazolidine-5-carboxamide]"
16,323,"O=C1NC[C@@H](C(=O)NC(c2ccc(Cl)cc2)c2nc(C(F)(F)F)cs2)O1 (single isomer, unassigned) [Example 12B, (S)-N-((R or S)-(4-chlorophenyl)(4-(trifluoromethyl)thiazol-2-yl)methyl)-2-oxooxazolidine-5-carboxamide]"
17,7.3,"O=C1NC[C@@H](C(=O)NC(c2ccc(F)c(Cl)c2F)[C@@H]2CC[C@@H](C(F)(F)F)CO2)O1 (single isomer, unassigned) [Example 9A]"
18,190,"O=C1NC[C@@H](C(=O)NC(c2cncc(Cl)c2)c2ccc(F)c(Cl)c2)O1 (single isomer, unassigned) [Example 13B, (S)-N-((R or S)-(3-chloro-4-fluorophenyl)(5-chloropyridin-3-yl)methyl)-2-oxooxazolidine-5-carboxamide]"
19,3.7,"O=C1NC[C@@H](C(=O)NC(c2ccc(OC(F)(F)F)c(Cl)c2)c2coc(C(F)(F)F)n2)O1 (single isomer, unassigned) [Example 51B, (S)-N-((R or S)-(3-chloro-4-(trifluoro-methoxy)phenyl)(2-(trifluoromethyl)oxazol-4-yl)methyl)-2-oxooxazolidine-5-carboxamide]"

row,SMILES,IC50 [nM]
1,"CC1NC(=O)OC1C(=O)NC(c1ccc(Cl)cc1)c1ccc(Cl)cc1 (single isomer, unassigned) [Example 6A, (cis or trans)-N-(bis(4-chlorophenyl)methyl)-4-methyl-2-oxooxazolidine-5-carboxamide]",442
